Marks after values point to notes of the source that are not given here.
Experiments:
FLT3 = FLT3 (Homo sapiens, UniProt P36888); assay: Inhibition of FLT3 phosphorylation; assay type: biochemical
Description: FLT3 is a class III receptor tyrosine kinase and plays an important role in hematopoiesis and lymphocyte development. […] Wang et al found over 60% of 82 leukemia cell lines were FLT3 positive (Wang Y et al., (2006) Journal of Experimental Hematology 14(3): 446-449). FLT3-internal tandem duplication (ITD) is the most commonly seen mutation in AML patients, with about 17-34% of AML patients carrying such a mutation (Jia H et al., (2018) Medical Laboratory Science and Clinics 19(5): 39). […] Thus, the compounds of the disclosure with high inhibitory effect on FLT3 function may be good candidates for leukemia treatment.

H441 = assay: MTT tumor cell proliferation, H441; assay type: cell-based; conditions: Homo sapiens, NCI-H441; H441, Lung cancer, 72 hour
Procedure: (§1) as an exemplary compound of formula (I), was tested for its inhibitory effect on tumor cell proliferation in a MTT assay.
(§2) Briefly, cells at the log phase were collected, suspended in the cell culture medium at 4*10^4/ml density, and plated in 96-well plates, 90 μl per well. The plates were kept in a 5% CO2 and 37° C. incubator for 2 hours, and then added with 100 μg/ml, 10 μg/ml, 1 μg/ml, 0.1 μg/ml, 0.01 μg/ml or 0.001 μg/ml Compound A, 4 replicates for each cell at each compound concentration. DMSO was used in the positive control group, and another negative group was also set. After 72 hour incubation in the same incubator, 20 μl 5 mg/ml MTT reagent was added to each well. After another 4 hour incubation, each well was added with 100 μl SDS and further incubated for 12 hours. Absorbance at 570 nm was read in a reader, and IC50 was calculated.

SGC-7901 = assay: MTT tumor cell proliferation, SGC-7901; assay type: cell-based; conditions: Homo sapiens; SGC-7901, Gastric cancer, 72 hour
Procedure: as §1, §2

SK-BR-3 = assay: MTT tumor cell proliferation, SK-BR-3; assay type: cell-based; conditions: Homo sapiens; SK-BR-3, Breast cancer, 72 hour
Procedure: as §1, §2

MDA-MB-231 = assay: MTT tumor cell proliferation, MDA-MB-231; assay type: cell-based; conditions: Homo sapiens; MDA-MB-231, Breast cancer, 72 hour
Procedure: as §1, §2

MV-4-11 = assay: MTT tumor cell proliferation, MV-4-11; assay type: cell-based; conditions: Homo sapiens, MV4-11; MV-4-11, Acute myeloid leukemia, 72 hour
Procedure: as §1, §2

Reh = assay: MTT tumor cell proliferation, Reh; assay type: cell-based; conditions: Homo sapiens, Acute lymphocytic leukemia, 72 hour
Procedure: as §1, §2

[1] = test system: S180 murine sarcoma cancer cells; assay: S180 sarcoma growth in mice; conditions: for TGI: tumor weight, Day 8
Procedure: On Day 8, the mice were weighed and sacrificed, and the tumors were collected and weighed.
Tumor growth inhibition (TGI) was calculated by the following formula. Tumor growth inhibition=(average tumor weight in vehicle group-average tumor weight in administration group)/average tumor weight in vehicle group×100%

[2] = test system: Colon26 murine colon cancer cells; assay: Colon26 colon cancer growth in mice; assay type: in vivo, F1 mice; conditions: D1-7; for TGI / Tumor weight: Day 8
Procedure: F1 mice, 18-22 g, purchased from Shanghai Bi-Kai Laboratory Animal Co., Ltd, were subcutaneously inoculated with Colon26 murine colon cancer cells (from Cell Bank, Chinese Academy of Sciences) at the right axilla. […] Tumor growth inhibition (TGI) was calculated.

H446 = assay: Tumor cell death by MTT, H446; assay type: cell-based, human; conditions: 20 nM
Procedure: The in vitro inhibitory effect of Compound A alone or in combination with a PARP inhibitor on tumor cell growth was tested using human small cell lung cancer (SCLC) cell lines, including H69 (ATCC® HTB-119™), H526 (ATCC® CRL-5811™) and H446 (TCHu196, National Collection of Authenticated Cell Cultures).
Briefly, the cells were seeded into a 96-well dish with RPMI-1640 (10-040-CV, Coming cellgro) containing 10% fetal bovine serum (10270-106, GIBCO), 1% penicillin and 1% streptomycin (BaSalMedia, S110JV), at an initial density of 3×10^3 cells per well ([…]), and cultured at a 37° C., 5% CO2 humidified incubator for 24 hours. Then, the culture media were added with Compound A (final concentration at 20 nM), olaparib (APEXBIO, A4154, a PARP inhibitor, final concentration at 10 μM), Compound A + olaparib (final concentrations at20 nM and 10 μM), or PBS (vehicle), respectively, and the cells were cultured for 48 hours. Then, cell viability was determined by MTT. The test was done in triplicate.
Cell death rate was calculated by the following formula.
Cell death rate=[1−(ODtest-ODvehicle)]×100%
Cell death rates were analyzed using student's t-test, and group differences were deemed statistically significant when the p-value was lower than 0.05. Zheng-Jun Jin's Q value was calculated using the formula Q=EA+B/(EA+EB-EA×EB) to assess the combined effect of Compound A and the PARP inhibitor, wherein EA+B, EA, and EB referred to the cell death rates caused by the combined treatment, Compound A treatment and PARP inhibitor treatment, respectively. A Q value higher than 1.15 meant a synergistic […] effect.
Another PARP inhibitor, rucaparib (APEXBIO, A4156), was tested alone or with Compound A for inhibitory effect on tumor cell growth, following the protocol of Example 9.

PI3K γ isoform = PI3K γ isoform (Homo sapiens, UniProt P48736); assay: PI3K γ isoform inhibition; conditions: one of the other three isoforms
[3] = test system: SGC-7901 human gastric cancer cells; assay: SGC-7901 gastric cancer xenograft in mice; conditions: D0, 3, 6, 9, 12; for T/C: D18
Procedure: Mice body weights and tumor sizes were measured 2 to 3 times a week. The tumor volume (V) was calculated as (length× width^2)/2. T/C (%) was calculated as (T-T0)/(C-C0)×100, wherein T and C represented the tumor volumes in the administration group and the vehicle group respectively at the end of the experiment, while T0 and C0 represented the tumor volumes in the administration group and the vehicle group respectively at the beginning of the experiment. And RTV was calculated as (Tumor volume at Day N/Tumor volume at Day 0).
BALB/cA-nude mice, 5-6 weeks old, purchased from Shanghai SLAC Laboratory Animal Co., Ltd, were subcutaneously inoculated with SGC-7901 human gastric cancer cells (from Cell Bank, Chinese Academy of Sciences).
Mice body weights and tumor sizes were measured 2 to 3 times a week. The tumor volume, T/C and RTV were calculated as described above. Mice were sacrificed on Day 18.

Sequence of FLT3 (P36888 27-993, species assumed): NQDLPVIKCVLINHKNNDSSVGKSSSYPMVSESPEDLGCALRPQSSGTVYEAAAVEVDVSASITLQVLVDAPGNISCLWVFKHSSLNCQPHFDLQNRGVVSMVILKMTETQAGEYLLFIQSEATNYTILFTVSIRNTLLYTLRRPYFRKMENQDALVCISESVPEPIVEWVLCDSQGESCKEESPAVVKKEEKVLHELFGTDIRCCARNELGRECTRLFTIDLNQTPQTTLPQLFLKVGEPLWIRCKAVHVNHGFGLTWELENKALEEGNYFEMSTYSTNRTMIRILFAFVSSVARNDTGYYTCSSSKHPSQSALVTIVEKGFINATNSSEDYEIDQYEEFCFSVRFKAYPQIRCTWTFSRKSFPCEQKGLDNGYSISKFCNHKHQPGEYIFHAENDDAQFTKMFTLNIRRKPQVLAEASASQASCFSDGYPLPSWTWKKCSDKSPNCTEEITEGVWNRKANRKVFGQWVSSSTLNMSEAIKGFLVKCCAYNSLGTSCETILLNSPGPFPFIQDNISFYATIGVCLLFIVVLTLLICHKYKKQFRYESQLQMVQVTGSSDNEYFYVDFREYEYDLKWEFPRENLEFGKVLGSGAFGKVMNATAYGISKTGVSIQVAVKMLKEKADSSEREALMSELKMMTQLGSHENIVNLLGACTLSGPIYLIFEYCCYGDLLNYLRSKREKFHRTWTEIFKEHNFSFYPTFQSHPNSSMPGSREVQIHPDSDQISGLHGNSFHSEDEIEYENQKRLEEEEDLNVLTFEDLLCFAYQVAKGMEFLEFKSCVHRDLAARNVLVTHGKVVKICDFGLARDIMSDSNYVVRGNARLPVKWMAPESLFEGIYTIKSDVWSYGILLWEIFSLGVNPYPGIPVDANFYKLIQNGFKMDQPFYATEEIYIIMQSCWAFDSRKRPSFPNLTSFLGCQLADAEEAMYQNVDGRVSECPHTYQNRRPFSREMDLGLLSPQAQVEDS
Sequence of PI3K γ isoform (P48736 whole entry, canonical isoform): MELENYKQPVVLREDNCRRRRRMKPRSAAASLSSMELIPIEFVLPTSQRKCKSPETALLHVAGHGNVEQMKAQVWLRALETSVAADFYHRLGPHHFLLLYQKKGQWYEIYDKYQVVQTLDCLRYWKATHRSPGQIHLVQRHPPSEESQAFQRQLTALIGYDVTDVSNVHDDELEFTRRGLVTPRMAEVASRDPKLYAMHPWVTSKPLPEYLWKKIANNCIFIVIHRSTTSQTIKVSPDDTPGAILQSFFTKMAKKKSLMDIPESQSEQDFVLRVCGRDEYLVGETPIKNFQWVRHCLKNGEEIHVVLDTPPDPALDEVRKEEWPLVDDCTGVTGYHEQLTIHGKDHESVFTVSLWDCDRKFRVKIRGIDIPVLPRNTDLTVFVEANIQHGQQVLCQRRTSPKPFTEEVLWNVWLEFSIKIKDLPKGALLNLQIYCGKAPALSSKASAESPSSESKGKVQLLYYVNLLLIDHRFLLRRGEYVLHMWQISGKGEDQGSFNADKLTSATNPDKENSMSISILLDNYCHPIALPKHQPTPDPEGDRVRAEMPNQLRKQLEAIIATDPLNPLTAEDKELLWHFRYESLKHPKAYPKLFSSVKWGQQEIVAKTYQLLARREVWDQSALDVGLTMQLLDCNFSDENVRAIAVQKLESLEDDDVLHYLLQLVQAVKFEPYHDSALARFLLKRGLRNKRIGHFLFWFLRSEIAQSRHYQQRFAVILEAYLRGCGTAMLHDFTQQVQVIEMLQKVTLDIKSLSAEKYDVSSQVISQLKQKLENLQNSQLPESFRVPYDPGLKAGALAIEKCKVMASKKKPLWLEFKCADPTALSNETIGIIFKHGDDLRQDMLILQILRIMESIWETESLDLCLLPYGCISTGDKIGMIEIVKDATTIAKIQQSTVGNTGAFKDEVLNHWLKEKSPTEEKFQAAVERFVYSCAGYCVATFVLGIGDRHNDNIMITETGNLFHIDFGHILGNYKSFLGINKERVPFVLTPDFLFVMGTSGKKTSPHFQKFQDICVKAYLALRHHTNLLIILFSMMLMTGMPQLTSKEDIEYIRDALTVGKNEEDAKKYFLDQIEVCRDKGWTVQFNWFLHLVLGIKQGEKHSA

c1cnc2ccc(Nc3nc(NC4CC4)c4nc[nH]c4n3)cc2c1 [Compound A]
EC50 (FLT3): ~0.049 µM
IC50 (H441): 15.9 ± 9.5 µM
IC50 (SGC-7901): 3.8 ± 0.6 µM
IC50 (SK-BR-3): 16.5 ± 0.9 µM
IC50 (MDA-MB-231): 3.5 ± 0.1 µM
IC50 (MV-4-11): 0.3 ± 0.1 µM
IC50 (Reh): 0.8 ± 0.1 µM
Tumor weight on Day 8 ([1]; 60 mg/kg P.O., D1-4): 0.33 ± 0.13 g
TGI ([1]; 60 mg/kg P.O., D1-4): 82.8* %
Tumor weight on Day 8 ([1]; 80 mg/kg I.V., D1&D4): 1.10 ± 0.21 g
TGI ([1]; 80 mg/kg I.V., D1&D4): 42.7* %
Tumor weight on Day 8 ([1]; 80 mg/kg P.O., D1 &D4): 1.12 ± 0.34 g
TGI ([1]; 80 mg/kg P.O., D1 &D4): 41.7* %
Body weight (without tumor) at D8 ([2]; 30 mg/kg P.O.): 21.57 g
TGI ([2]; 30 mg/kg P.O.): 31.88%
Tumor weight ([2]; 30 mg/kg P.O.): 1.39 g
Body weight (without tumor) at D8 ([2]; 60 mg/kg P.O.): 15.96 g
TGI ([2]; 60 mg/kg P.O.): 76.12%
Tumor weight ([2]; 60 mg/kg P.O.): 0.49 g
Cell Death Rate/% 1 (H446; 48 hours, Table 10): 13.5%
Cell Death Rate/% 2 (H446; 48 hours, Table 10): 13.18%
Cell Death Rate/% 3 (H446; 48 hours, Table 10): 13.67%
Cell Death Rate/% mean (H446; 48 hours, Table 10): 13.45%
Cell Death Rate/% 1 (H446; Example 10, Table 11): 15%
Cell Death Rate/% 2 (H446; Example 10, Table 11): 14.62%
Cell Death Rate/% 3 (H446; Example 10, Table 11): 15.17%
Cell Death Rate/% mean (H446; Example 10, Table 11): 14.93%
EC50, PI3K γ isoform (PI3K γ isoform): at the μM level
RTV at D18 ([3]; 15 mg/kg P.O.): 5.57 ± 2.74
Tumor volume D0 ([3]; 15 mg/kg P.O.): 162 ± 32 mm^3
Tumor volume D18 ([3]; 15 mg/kg P.O.): 845 ± 349 mm^3
T/C ([3]; 15 mg/kg P.O.): 68.2%
RTV at D18 ([3]; 30 mg/kg P.O.): 3.73 ± 1.16
Tumor volume D0 ([3]; 30 mg/kg P.O.): 197 ± 45 mm^3
Tumor volume D18 ([3]; 30 mg/kg P.O.): 701 ± 142 mm^3
T/C ([3]; 30 mg/kg P.O.): 45.7* %
RTV at D18 ([3]; 60 mg/kg P.O.): 2.58 ± 1.07
Tumor volume D0 ([3]; 60 mg/kg P.O.): 215 ± 49 mm^3
Tumor volume D18 ([3]; 60 mg/kg P.O.): 545 ± 233 mm^3
T/C ([3]; 60 mg/kg P.O.): 31.6* %
